# Where a name gives a salt, the structure may show the parent alone.
# Tests used:
# [1] = molecular target: T1, hemoglobin in stool samples (Homo sapiens, UniProt P68871+P69905); experiment: Accelerated shipping simulation (35C 16 hour challenge), hemoglobin % recovery by ELISA; set-up: from tissue; host or cells: stool samples;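 further: stool hemoglobin measured by ELISA before and after thermal-cycler shipping stress, stability given as percent of pre-stress hemoglobin recovered afterwards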
# [2] = molecular target: T1, hemoglobin in stool samples; experiment: 3-Day shipping simulation, hemoglobin % recovery by ELISA; set-up: from tissue; host or cells: stool samples; conditions: for Notes (Hb stability vs Hb Collection Buffer): additive concentrations as in the 8th table;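 on all read-outs here: stool samples put through shipping stress in a thermal cycler, hemoglobin quantified by ELISA before and after, stability given as post-stress % of the pre-stress level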
# T1 sequence (P69905 2-142 limits assumed): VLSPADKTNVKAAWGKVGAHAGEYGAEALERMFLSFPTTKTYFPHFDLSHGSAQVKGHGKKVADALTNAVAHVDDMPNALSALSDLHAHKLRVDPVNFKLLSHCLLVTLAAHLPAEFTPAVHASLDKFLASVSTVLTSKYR
# T1 sequence (P68871 2-147 limits assumed): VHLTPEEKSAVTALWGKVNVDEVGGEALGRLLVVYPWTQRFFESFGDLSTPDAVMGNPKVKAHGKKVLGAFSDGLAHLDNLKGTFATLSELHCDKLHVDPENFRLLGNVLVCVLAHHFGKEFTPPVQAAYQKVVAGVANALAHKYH
compound,measurement,setting,value
OC[C@H]1O[C@H](O[C@H]2O[C@H](CO)[C@@H](O)[C@H](O)[C@H]2O)[C@H](O)[C@@H](O)[C@@H]1O [Trehalose],Results,[1]; additive concentration 0.0174 mM,No Improvement
same,Results,[1]; additive concentration 0.174 mM,No Improvement
same,Results,[1]; additive concentration 1.74 mM,No Improvement
same,Results,[1]; additive concentration 10 mM,No Improvement
same,Results,[1]; additive concentration 16.76 mM,No Improvement
same,Results,[1]; additive concentration 0.3M,Improvement
same,Notes (Hb stability vs Hb Collection Buffer),[2],Improved Hb
Cc1c(C)c2c(c(C)c1O)CCC(C)(CCCC(C)CCCC(C)CCCC(C)C)O2 (stereo not drawn) [Tocopherol],Results,[2]; Additive Concentration 0.10%,No improvement
same,Results,[2]; Additive Concentration 1%,No improvement
same,Results,[2]; Additive Concentration 10%,No improvement
Cn1sccc1=O [Methylisothiazolone],Results,[2]; Additive Concentration 0.0001%,No improvement
same,Results,[2]; Additive Concentration 0.0002%,No improvement
same,Results,[2]; Additive Concentration 0.0010%,No improvement
same,Results,[2]; Additive Concentration 0.0020%,No improvement
same,Results,[2]; additive concentration 0.00005%,No improvement
C=O [Formaldehyde Solution],Results,[2]; additive concentration 0.010%,No Improvement
same,Results,[2]; additive concentration 0.020%,No Improvement
same,Results,[2]; additive concentration 0.030%,No Improvement
same,Results,[2]; additive concentration 0.035%,No Improvement
same,Results,[2]; additive concentration 0.040%,No Improvement
same,Results,[2]; additive concentration 0.050%,No Improvement
same,Results,[2]; additive concentration 0.060%,No Improvement
same,Results,[2]; additive concentration 0.070%,No Improvement
same,Results,[2]; additive concentration 0.080%,No Improvement
same,Results,[2]; additive concentration 0.090%,No Improvement
same,Results,[2]; additive concentration 0.100%,No Improvement
same,Results,[2]; additive concentration […],No Improvement
O=c1c(-c2ccc(O)cc2)coc2cc(O)ccc12 [Diadzein],Results,[2]; Additive Concentration 60 mM,No improvement
same,Results,[2]; additive concentration 25 uM,No improvement
same,Results,[2]; additive concentration 50 uM,No improvement
same,Results,[2]; additive concentration 100 uM,No improvement
same,Results,[2]; additive concentration 40 mM,No improvement
same,Results,[2]; additive concentration 50 mM,No improvement
O=CCCCC=O [Glutaraldehyde Solution],Results,[2]; additive concentration 0.010%,No Improvement
same,Results,[2]; additive concentration 0.020%,No Improvement
same,Results,[2]; additive concentration 0.030%,No Improvement
same,Results,[2]; additive concentration 0.035%,No Improvement
same,Results,[2]; additive concentration 0.040%,No Improvement
same,Results,[2]; additive concentration 0.050%,No Improvement
same,Results,[2]; additive concentration 0.060%,Assay Interference
same,Results,[2]; additive concentration 0.070%,Assay Interference
same,Results,[2]; additive concentration 0.080%,No Improvement
same,Results,[2]; additive concentration 0.090%,No Improvement
same,Results,[2]; additive concentration 0.100%,No Improvement
Oc1ccc(C=Cc2cc(O)cc(O)c2)cc1 [Resveratrol],Results,[2]; Additive Concentration 10 mM,No improvement
same,Results,[2]; additive concentration 5 mM,No improvement
same,Results,[2]; additive concentration 20 mM,No improvement
Cc1ncc(CO)c(CO)c1O [Vitamine B6 in HCl],Results,[2]; additive concentration 0.5 mM,No improvement
same,Results,[2]; additive concentration 1 mM,No improvement
same,Results,[2]; additive concentration 2 mM,No improvement
[Cl][Ni][Cl] [Nickel Chloride],Results,[2]; additive concentration 1 mM,No Improvement
same,Results,[2]; additive concentration 10 mM,No Improvement
same,Results,[2]; additive concentration 25 mM,No Improvement
[Cl-].[Cl-].[Zn+2] [Zinc Chloride],Results,[2]; additive concentration 1 mM,No Improvement
same,Results,[2]; additive concentration 10 mM,No Improvement
same,Results,[2]; additive concentration 25 mM,No Improvement
O=C(NCO)N(CO)C1(CO)C(=O)NC(=O)N1CO (stereo not drawn) [Diazolidinyl Urea],Results,[1]; additive concentration 10 uM,No Improvement
same,Results,[1]; additive concentration 100 uM,No Improvement
same,Results,[1]; additive concentration 1 mM,No Improvement
same,Results,[1]; additive concentration 10 mM,No Improvement
same,Results,[2]; additive concentration 10 mM,No Improvement
same,Results,[2]; additive concentration 25 mM,No Improvement
same,Results,[2]; additive concentration 50 mM,No Improvement
same,Results,[2]; additive concentration 75 mM,No Improvement
same,Results,[2]; additive concentration 100 mM,No Improvement
N.N.N.O=C(O)C1=CC(=C(c2ccc(O)c(C(=O)O)c2)c2ccc(O)c(C(=O)O)c2)C=CC1=O [aurintircarboxylic acid ammonium salt],Results,[2]; Additive Concentration 5%,No improvement
same,Results,[2]; Additive Concentration 10%,No improvement
same,Results,[2]; Additive Concentration 25%,No improvement
[Cl][Co][Cl] [Cobalt Chloride],Results,[2]; additive concentration 0.001M,No Improvement
same,Results,[2]; additive concentration 0.01M,No Improvement
same,Results,[2]; additive concentration 0.05M,No Improvement
[Cl][Fe]([Cl])[Cl] [Iron (3) Chloride],Results,[2]; additive concentration 1 mM,No Improvement
same,Results,[2]; additive concentration 5 mM,No Improvement
same,Results,[2]; additive concentration 10 mM,No Improvement
BSA (10 mM MOPS),Results,[2]; Additive Concentration 1%,No Improvement
[Cl][Cu][Cl] [Copper Chloride],Results,[2]; additive concentration 1 mM,No Improvement
same,Results,[2]; additive concentration 10 mM,No Improvement
same,Results,[2]; additive concentration 25 mM,No Improvement
O=C1O[C@H]([C@@H](O)CO)C(O)=C1O [Ascorbic Acid],Results,[1]; additive concentration 0.2 uM,No Improvement
same,Results,[1]; additive concentration 5 uM,No Improvement
same,Results,[1]; additive concentration 10 uM,No Improvement
same,Results,[1]; additive concentration 100 uM,No Improvement
same,Results,[1]; additive concentration 10 mM,No Improvement
same,Results,[1]; additive concentration 25 mM,No Improvement
same,Results,[1]; additive concentration l uM,No Improvement
same,Results,[2]; additive concentration 0.5 mM,No improvement
same,Results,[2]; additive concentration 1 mM,No improvement
same,Results,[2]; additive concentration 5 mM,No improvement
CCC(=O)[O-].CCC(=O)[O-].[Ca+2] [Calcium Propionate],Results,[2]; additive concentration 5 mM,Calcium cation shows
same,Results,[2]; additive concentration 10 mM,Calcium cation shows
same,Results,[2]; additive concentration 20 mM,Calcium cation shows
same,Results,[2]; additive concentration 30 mM,Calcium cation shows
same,Results,[2]; additive concentration 40 mM,Calcium cation shows
same,Results,[2]; additive concentration 50 mM,Calcium cation shows
O=C([O-])CNCO.[Na+] [Soduim hyrdoxylmethyl glycinate],Results,[2]; additive concentration 10 mM,No Improvement
same,Results,[2]; additive concentration 25 mM,No Improvement
same,Results,[2]; additive concentration 50 mM,No Improvement
same,Results,[2]; additive concentration 75 mM,No Improvement
same,Results,[2]; additive concentration 90 mM,No Improvement
OC[C@H]1O[C@@](CO)(O[C@H]2O[C@H](CO)[C@@H](O)[C@H](O)[C@H]2O)[C@@H](O)[C@@H]1O [Sucrose],Results,[1]; additive concentration […],Improvement
same,Notes (Hb stability vs Hb Collection Buffer),[2],Improved Hb
"O=c1cc(-c2ccccc2)oc2c(O)c(O)ccc12 [7,8 dihydroxyflavone]",Results,[2]; additive concentration 0.5 mM,No improvement
same,Results,[2]; additive concentration 1 mM,No improvement
C=CC1=C(C)c2cc3[n-]c(cc4nc(cc5[n-]c(cc1n2)c(C)c5C=C)C(C)=C4CCC(=O)O)c(CCC(=O)O)c3C.[Cl-].[Cr+3] [Protoporphyrin IX Chromium (Vendor 2)],Results,[1]; additive concentration 1.25 uM,Improvement in % Hb
same,Results,[1]; additive concentration 5 uM,Improvement in % Hb
O=c1c(O)c(-c2ccc(O)c(O)c2)oc2cc(O)cc(O)c12 [Quercetin],Results,[1]; additive concentration 0.6 uM,No Improvement
same,Results,[1]; additive concentration 6 uM,No Improvement
same,Results,[1]; additive concentration 60 uM,No Improvement
same,Results,[2]; Additive Concentration 150 uM,No improvement
same,Results,[2]; Additive Concentration 300 uM,No improvement
same,Results,[2]; Additive Concentration 600 uM,No improvement
OC[C@H]1OC(O)[C@H](O)[C@@H](O)[C@@H]1O (stereo partly drawn) [Glucose],Results,[1]; additive concentration 72 uM,No Improvement
same,Results,[1]; additive concentration 720 uM,No Improvement
C=CC1=C(C)c2cc3[n-]c(cc4nc(cc5[n-]c(cc1n2)c(C)c5C=C)C(C)=C4CCC(=O)O)c(CCC(=O)O)c3C.[Cl-].[Cr+3] [Protoporphyrin IX Chromium (Vendor 1)],Results,[1]; additive concentration 1.25 uM,Improvement in % Hb
same,Results,[1]; additive concentration 5 uM,Improvement in % Hb
C=CC1=C(C)c2cc3[n-]c(cc4nc(cc5[n-]c(cc1n2)c(C)c5C=C)C(C)=C4CCC(=O)O)c(CCC(=O)O)c3C.[Cl-].[Co+3] [Protoporphyrin IX Cobalt (Vendor 3)],Results,[1]; additive concentration 1.25 uM,Improvement in % Hb
same,Results,[1]; additive concentration 5 uM,Improvement in % Hb
O=[N+]([O-])C1(Br)COCOC1 [Bronidox],Results,[2]; Additive Concentration 0.0002%,No improvement
same,Results,[2]; Additive Concentration 0.0010%,No improvement
same,Results,[2]; Additive Concentration 0.0020%,No improvement

# From patent US20240402196A1 (Exact Sciences Corporation, priority 2018, published 2024)
